Test results from patent US6844435B2, “Heterocyclic compounds useful as inhibitors of tyrosine kinases” (Boehringer Ingelheim Pharmaceuticals, Inc., priority 2000, dated 2005).

melting point | Compound
258 °C (dec.) | Cn1c(Nc2c(Cl)cccc2Cl)nc2ccc3nc(CC4=CCCC4)[nH]c(=O)c3c21 [Example 40]
310 to 313 °C | C/C(=C\c1ccccc1N)c1nc2ccc3nc(Nc4c(Cl)cccc4Cl)n(C)c3c2c(=O)[nH]1 [Example 80]
> 300 °C | CCn1c(Nc2c(Cl)cccc2Cl)nc2ccc3nc[nH]c(=O)c3c21 [Example 5, 2-(2,6-Dichlorophenylamino)-1-ethyl-1,8-dihydro-9H-imidazo[4,5-f]quinazoline-9-one]
195 to 200 °C (dec.) | C/C(=C\c1cc(N)cc(N)c1)c1nc2ccc3nc(Nc4c(Cl)cccc4Cl)n(C)c3c2c(=O)[nH]1 [Example 99]
> 300 °C | Cn1c(Nc2c(Cl)cccc2Cl)nc2ccc3nc(-c4ccccc4)[nH]c(=O)c3c21 [Example 7, 2-(2,6-Dichlorophenylamino)-1-methyl-7-phenyl-1,8-dihydro-9H-imidazo[4,5-f]quinazoline-9-one]
190 °C | Cn1c(Nc2c(Cl)cccc2Cl)nc2ccc3nc(-c4ccc(S(=O)(=O)N5CCN(C(=O)OC(C)(C)C)CC5)cc4)[nH]c(=O)c3c21 [Example 96]
170 °C (dec.) | C/C(=C\c1cccc(NC(=N)N)c1)c1nc2ccc3nc(Nc4c(Cl)cccc4Cl)n(C)c3c2c(=O)[nH]1 [Example 101]
185 to 192 °C | Cn1c(Nc2c(Cl)cccc2Cl)nc2ccc3nc(Nc4ccccc4)[nH]c(=O)c3c21 [Example 31]
284 to 288 °C | C/C(=C\c1ccccc1C#N)c1nc2ccc3nc(Nc4c(Cl)cccc4Cl)n(C)c3c2c(=O)[nH]1 [Example 102]
173 to 174 °C | Cn1c(Nc2c(Cl)cccc2Cl)nc2ccc3nc(C4=CC(N5CCNCC5)CC4)[nH]c(=O)c3c21 (stereo not shown) [Example 48]
> 300 °C | Cn1c(Nc2c(Cl)cccc2Cl)nc2ccc3nc(C4=CC(=O)CC4)[nH]c(=O)c3c21 [Example 81]
210 °C | Cn1c(Nc2c(Cl)cccc2Cl)nc2ccc3nc(-c4cccc(S(=O)(=O)N5CCNCC5)c4)[nH]c(=O)c3c21 [Example 68]
295 to 300 °C (dec.) | Cn1c(Nc2c(Cl)cccc2Cl)nc2ccc3nc(-c4csc([C@@H]5CCCC[C@H]5N)n4)[nH]c(=O)c3c21 [Example 77]
265 to 268 °C | Cn1c(Nc2c(Cl)cccc2Cl)nc2ccc3nc(C(=O)NCCO)[nH]c(=O)c3c21 [Example 41]
228 to 230 °C | CN1c2ccc3nc(Nc4c(Cl)cccc4Cl)n(C)c3c2C(=O)NC1c1ccccc1 (stereo not shown) [Example 88]
> 300 °C | Cn1c(Nc2c(Cl)cccc2Cl)nc2ccc3nc(-c4ccccn4)[nH]c(=O)c3c21 [Example 29]
295 °C (dec.) | Cn1c(Nc2c(Cl)cccc2Cl)nc2ccc3nc(C4=CCCC4)[nH]c(=O)c3c21 [Example 35]
295 °C (dec.) | Cn1c(Nc2c(Cl)cccc2Cl)nc2ccc3nc(C(=O)N4CCCC4)[nH]c(=O)c3c21 [Example 52]
189 °C | Cn1c(Nc2c(Cl)cccc2Cl)nc2ccc3nc(-c4cccc(S(=O)(=O)N5CCN(C(=O)OC(C)(C)C)CC5)c4)[nH]c(=O)c3c21 [Example 67]
